Experimental findings from patent publication US6084130A, “Aryl substituted bicyclic amines as selective dopamine D3 ligands” (Pharmacia & Upjohn Company, priority 1997, dated 2000) are described below.

Experiment [1] addresses T1, D2-DOP-CLONE (Rattus norvegicus, UniProt P61169).
T1 construct: expressed in transfected cells; host or cells: CHO-K1
Put plainly: Competition binding against [3H]-86170, cloned rat D2 receptors expressed in CHO-K1 cells (Table II). As to conditions: ligand 86170 (2 nM). How it is done:
(§1) As was done for Table I, competition binding experiments employed eleven dilutions of test compounds of Formula II competing with [^3 H]-5-(dipropylamino)-5,6-dihydro-4H-imidazo(4,5,1-ij)quinolin-2(1H)-one (R-enantiomer) ("86170") (62 Ci/mmol, 2 nM) and [^3 H]-7-OH-DPAT ("7-OH-DPAT") (107 Ci/mmol, 0.5 nM) for D2 and D3 binding sites, respectively. (Lahti, R. A., Eur. J. Pharmacol., 202, 289 (1991)) In each experiment, cloned rat receptors expressed in CHO-K1 cells were used. (Chio, C. L., Nature, 343, 266 (1990); and Huff, R. M., Mol. Pharmacol., 45, 51-60 (1993). Ki values were calculated with the Chen-Prushoff equation. The results are shown in Table II for compounds prepared under Scheme 5.

The target in experiment [2] is T2, D3-DOP-CLONE (Rattus norvegicus, UniProt P19020).
T2 construct: expressed in transfected cells; host or cells: CHO-K1
The experiment is described as follows: Competition binding against [3H]-7-OH-DPAT, cloned rat D3 receptors expressed in CHO-K1 cells (Table II). The note with it: ligand 7-OH-DPAT (0.5 nM). How it is done: as §1

The target of experiment [3] is T2, D3-DOP-CLONE. The experiment is described as follows: Competition binding against [3H]-spiperone, cloned rat D3 receptors expressed in CHO-K1 cells (Table I). Details: key to Ki (nM): *: indicates compound was inactive. As to conditions: ligand SPI (0.5 nM). How it is done:
(§2) Competition binding experiments employed eleven dilutions of test compounds of Formula I competing with [^3 H]-5-(dipropylamino)-5,6-dihydro-4H-imidazo(4,5,1-ij)quinolin-2(1H)-one (R-enantiomer) ("86170") (62 Ci/mmol, 2 nM) and [^3 H]-spiperone ("SPI") (107 Ci/mmol, 0.5 nM) for D2 and D3 binding sites, respectively. (Lahti, R. A., Eur. J. Pharmacol., 202, 289 (1991)) In each experiment, cloned rat receptors expressed in CHO-K1 cells were used. (Chio, C. L., Nature, 343, 266 (1990); and Huff, R. M., Mol. Pharmacol. 45, 51-60 (1993)).

Experiment [4] deals with T1, D2-DOP-CLONE. The experiment is described as follows: Competition binding against [3H]-86170, cloned rat D2 receptors expressed in CHO-K1 cells (Table I). Details: key to Ki (nM): *: indicates compound was inactive. The note with it: ligand 86170 (2 nM). How it is done: as §2
A further experiment relates to Dopamine. The experiment is described as follows: Dopamine screen. The class given is binding.

T1 sequence (P61169 whole entry): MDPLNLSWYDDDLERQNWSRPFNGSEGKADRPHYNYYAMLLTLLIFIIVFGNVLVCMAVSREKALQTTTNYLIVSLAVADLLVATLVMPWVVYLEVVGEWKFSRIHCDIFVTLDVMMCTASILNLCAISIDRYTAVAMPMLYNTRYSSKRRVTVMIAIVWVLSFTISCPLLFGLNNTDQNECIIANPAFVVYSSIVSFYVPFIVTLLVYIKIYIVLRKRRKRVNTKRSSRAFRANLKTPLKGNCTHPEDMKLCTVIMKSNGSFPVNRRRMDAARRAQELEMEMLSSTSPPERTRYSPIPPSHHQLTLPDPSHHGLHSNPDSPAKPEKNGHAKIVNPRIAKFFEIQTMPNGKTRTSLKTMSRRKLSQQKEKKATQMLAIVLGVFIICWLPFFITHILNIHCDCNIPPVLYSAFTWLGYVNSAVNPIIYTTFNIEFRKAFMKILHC
T2 sequence (P19020 whole entry): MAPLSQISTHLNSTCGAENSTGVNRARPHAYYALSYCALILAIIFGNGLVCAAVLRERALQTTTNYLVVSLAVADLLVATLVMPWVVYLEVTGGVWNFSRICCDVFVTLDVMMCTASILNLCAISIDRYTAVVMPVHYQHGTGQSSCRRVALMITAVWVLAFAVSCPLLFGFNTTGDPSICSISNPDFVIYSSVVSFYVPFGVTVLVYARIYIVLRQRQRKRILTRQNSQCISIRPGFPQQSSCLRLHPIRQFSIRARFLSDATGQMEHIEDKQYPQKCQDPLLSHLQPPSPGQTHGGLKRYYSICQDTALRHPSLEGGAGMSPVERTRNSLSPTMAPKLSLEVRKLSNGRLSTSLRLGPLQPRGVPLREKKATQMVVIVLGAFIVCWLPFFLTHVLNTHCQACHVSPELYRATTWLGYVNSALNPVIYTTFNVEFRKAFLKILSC

As for `CCCNC1CCc2nc(OS(=O)(=O)c3ccc(Cl)cc3)ccc2C1` (centres unmarked) [Compound 52], the Ki turned out to be 357 nM on D2-DOP-CLONE [1] and 6 nM on D3-DOP-CLONE [2].

Turning to `CCCN(CCC)C1CCc2nc(OS(=O)(=O)c3ccc(Cl)cc3)ccc2C1` (centres unmarked) [Compound 53], the Ki at D2-DOP-CLONE [1] was 184 nM; at D3-DOP-CLONE [2] it was 3 nM.

For `CCCN(CCC)[C@@H]1CCc2ccc(CNS(=O)(=O)c3ccc(C#N)cc3)cc2C1` [Example 2, (R)-4-Cyano-N-[[7-(dipropylamino)-5,6,7,8-tetrahydro-2-naphthalenyl]methyl]benzenesulfonamide], the Ki is 32 nM at D3-DOP-CLONE [3] and 1440 nM on D2-DOP-CLONE [4].

Regarding `CCCN(CCC)[C@@H]1CCc2ccc(CNS(=O)(=O)c3ccc(Cl)cc3)cc2C1` [Example 3, (R)-4-Chloro-N-[[7-(dipropylamino)-5,6,7,8-tetrahydro-2-naphthalenyl]methyl]benzenesulfonamide], the inhibition constant Ki was determined as 12 nM on D3-DOP-CLONE [3] and 206 nM at D2-DOP-CLONE [4].

With `CCCN(CCC)[C@@H]1CCc2ccc(CNS(=O)(=O)c3ccc([N+](=O)[O-])cc3)cc2C1` [Example 4, (R)-4-Nitro-N-[[7-(dipropylamino)-5,6,7,8-tetrahydro-2-naphthalenyl]methyl]benzenesulfonamide], the inhibitory constant (Ki) on D3-DOP-CLONE [3] was determined as 109 nM; on D2-DOP-CLONE [4] it was 772 nM.

`CCCN(CCC)[C@@H]1CCc2ccc(CNS(=O)(=O)c3cccc(C#N)c3)cc2C1` [Example 5, (R)-3-Cyano-N-[[7-(dipropylamino)-5,6,7,8-tetrahydro-2-naphthalenyl]methyl]benzenesulfonamide]: in the experiment with Dopamine, the “activity in dopamine screen” value is “Inactive”. The “Ki (nM)” value on D3-DOP-CLONE [3] is “*”. The inhibitory constant (Ki) on D2-DOP-CLONE [4] was 786 nM.

As to `CCCN(CCC)[C@@H]1CCc2ccc(CNS(=O)(=O)c3cn(C)cn3)cc2C1` [Example 6, (R)-N-[[7-(Dipropylamino)-5,6,7,8-tetrahydro-2-naphthalenyl]methyl]1-methyl-1H-imidazole-4-sulfonamide], the results for the Ki at D3-DOP-CLONE [3] and at D2-DOP-CLONE [4] were 1450 nM and 1680 nM, respectively.

For the compound `CCCN(CCC)[C@@H]1CCc2ccc(CNC(=O)c3ccc(Cl)cc3)cc2C1` [Example 8, (R)-4Chloro-N-[[7-(dipropylamino)-5,6,7,8-tetrahydro-2-naphthalenyl]methyl]benzamide], the inhibition constant (Ki) on D3-DOP-CLONE [3] turned out to be 87 nM; on D2-DOP-CLONE [4], 177 nM.

`CCCN(CCC)[C@@H]1CCc2ccc(CNC(=O)c3ccc(C#N)cc3)cc2C1` [Example 9, (R)-4-Cyano-N-[[7-(dipropylamino)-5,6,7,8-tetrahydro-2-naphthalenyl]methyl]benzamide]: the “Ki (nM)” value on D3-DOP-CLONE [3] and at D2-DOP-CLONE [4] was “*” throughout.

In the case of `CCCN(CCC)[C@@H]1CCc2ccc(NS(=O)(=O)c3ccc(Cl)cc3)cc2C1` [Example 10, (R)-4-Chloro-N-[7-(dipropylamino)-5,6,7,8-tetrahydro-2-naphthalenyl]benzenesulfonamide], the inhibition constant (Ki) at D3-DOP-CLONE [3] was 18 nM; on D2-DOP-CLONE [4], 324 nM.

`CCCN(CCC)[C@@H]1CCc2ccc(NS(=O)(=O)c3ccc(C#N)cc3)cc2C1` [Example 11, (R)-4-Cyano-N-[7-(dipropylamino)-5,6,7,8-tetrahydro-2-naphthalenyl]benzenesulfonamide]: the inhibition constant (Ki) at D3-DOP-CLONE [3] is 195 nM; on D2-DOP-CLONE [4], more than 2240 nM.

In general, Ki refers to a dissociation constant, usually derived from enzyme kinetics or from competition with a known ligand.
